Measurements as given in patent publication US8501804B2, “Bicyclic compound” (Takeda Pharmaceutical Company Limited, priority 2008, dated 2013).

Key:
human ACC2 (Nd) = molecular target: T1, human ACC2 (Nd) (Homo sapiens, UniProt O00763); assay: ACC2 inhibitory activity (malachite green); format: biochemical; details: test compound 10 μM; for inhibition at 10 µM: read-out: ACC2 10 μM inhibitory rate (%)
T1 construct: His6 (from vector pFAST-BacHTa); made in house; host or cells: SF-9 insect cells, recombinant baculovirus BAC-ACC2 (Nd)
T1 sequence (O00763 117-2458 limits assumed): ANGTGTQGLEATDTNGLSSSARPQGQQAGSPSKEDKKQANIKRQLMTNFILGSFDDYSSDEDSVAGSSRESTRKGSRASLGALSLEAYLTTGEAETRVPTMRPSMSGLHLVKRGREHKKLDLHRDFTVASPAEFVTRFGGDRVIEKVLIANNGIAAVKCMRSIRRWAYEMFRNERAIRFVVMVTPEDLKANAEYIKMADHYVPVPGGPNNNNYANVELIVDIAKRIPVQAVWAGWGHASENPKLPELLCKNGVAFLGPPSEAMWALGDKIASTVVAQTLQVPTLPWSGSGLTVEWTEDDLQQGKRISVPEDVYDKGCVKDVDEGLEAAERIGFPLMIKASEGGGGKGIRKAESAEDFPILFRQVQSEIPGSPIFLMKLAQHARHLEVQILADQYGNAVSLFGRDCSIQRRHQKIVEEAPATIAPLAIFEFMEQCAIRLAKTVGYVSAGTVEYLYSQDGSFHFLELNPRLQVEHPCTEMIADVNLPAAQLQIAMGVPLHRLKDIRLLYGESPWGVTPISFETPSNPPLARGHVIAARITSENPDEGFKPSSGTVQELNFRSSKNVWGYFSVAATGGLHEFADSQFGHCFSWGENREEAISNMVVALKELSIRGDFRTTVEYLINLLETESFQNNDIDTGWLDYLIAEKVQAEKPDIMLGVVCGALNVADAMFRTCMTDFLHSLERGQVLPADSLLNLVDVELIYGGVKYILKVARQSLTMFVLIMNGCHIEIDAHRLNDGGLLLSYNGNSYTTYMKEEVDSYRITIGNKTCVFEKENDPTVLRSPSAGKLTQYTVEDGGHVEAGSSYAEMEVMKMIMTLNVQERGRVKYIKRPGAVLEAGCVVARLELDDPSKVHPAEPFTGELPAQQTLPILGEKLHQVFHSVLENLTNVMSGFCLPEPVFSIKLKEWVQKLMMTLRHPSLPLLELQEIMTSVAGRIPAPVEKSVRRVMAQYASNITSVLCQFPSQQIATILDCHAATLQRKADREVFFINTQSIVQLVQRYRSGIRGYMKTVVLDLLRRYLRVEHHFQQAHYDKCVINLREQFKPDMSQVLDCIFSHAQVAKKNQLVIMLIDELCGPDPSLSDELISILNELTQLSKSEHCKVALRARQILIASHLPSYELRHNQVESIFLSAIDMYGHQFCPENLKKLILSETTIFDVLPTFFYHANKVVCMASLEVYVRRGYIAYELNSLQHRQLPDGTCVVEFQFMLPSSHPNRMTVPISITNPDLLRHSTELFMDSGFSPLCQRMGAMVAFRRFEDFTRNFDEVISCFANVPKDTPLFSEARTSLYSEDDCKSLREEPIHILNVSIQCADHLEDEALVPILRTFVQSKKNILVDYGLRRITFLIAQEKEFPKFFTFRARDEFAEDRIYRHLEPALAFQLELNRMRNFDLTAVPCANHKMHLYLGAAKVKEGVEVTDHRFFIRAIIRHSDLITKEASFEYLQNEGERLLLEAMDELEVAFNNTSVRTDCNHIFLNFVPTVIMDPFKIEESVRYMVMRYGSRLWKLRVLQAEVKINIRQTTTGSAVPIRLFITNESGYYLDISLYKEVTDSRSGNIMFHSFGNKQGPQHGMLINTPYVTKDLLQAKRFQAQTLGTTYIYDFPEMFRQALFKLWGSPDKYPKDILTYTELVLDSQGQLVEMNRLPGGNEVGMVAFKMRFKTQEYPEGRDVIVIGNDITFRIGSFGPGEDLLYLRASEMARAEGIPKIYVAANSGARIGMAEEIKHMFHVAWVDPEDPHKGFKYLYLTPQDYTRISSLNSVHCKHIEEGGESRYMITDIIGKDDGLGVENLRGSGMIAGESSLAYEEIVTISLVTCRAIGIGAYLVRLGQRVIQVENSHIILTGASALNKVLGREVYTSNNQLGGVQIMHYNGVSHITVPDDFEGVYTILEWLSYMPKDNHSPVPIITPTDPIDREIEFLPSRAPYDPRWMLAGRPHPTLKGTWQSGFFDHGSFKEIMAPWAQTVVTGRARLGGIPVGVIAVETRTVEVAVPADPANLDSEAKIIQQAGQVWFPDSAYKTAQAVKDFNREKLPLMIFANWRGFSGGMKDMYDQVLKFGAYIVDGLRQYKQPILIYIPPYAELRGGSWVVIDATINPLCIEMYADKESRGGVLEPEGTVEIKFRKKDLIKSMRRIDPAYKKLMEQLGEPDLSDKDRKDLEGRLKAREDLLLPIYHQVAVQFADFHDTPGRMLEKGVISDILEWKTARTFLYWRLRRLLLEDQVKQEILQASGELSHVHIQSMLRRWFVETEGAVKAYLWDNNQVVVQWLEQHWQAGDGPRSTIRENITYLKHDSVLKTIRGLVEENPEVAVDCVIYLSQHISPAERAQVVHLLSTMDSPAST
Description: The ACC2 inhibitory action of the compound of the present invention was evaluated by the following method.
(1) Cloning of Human ACC2 Gene and Preparation of Recombinant Baculovirus
(§1) Human ACC2 gene was cloned by PCR using a human skeletal muscle cDNA library (Clontech) as a template and Primer 1 and Primer 2 shown below. Primer 1 and Primer 2 were prepared by adding SalI, XbaI restriction enzyme recognition sequences based on the information of the base sequence of human ACC2 gene (Genbank Accession U89344).
(§2) PCR was performed using Pyrobest DNA polymerase (TAKARA BIO INC.). The obtained PCR product was cloned to pT7 Blue vector (Novagen) and, after confirmation of the base sequence, digested with restriction enzymes SalI and XbaI. The obtained DNA fragment was inserted into pFAST-BacHTa (Invitrogen) digested with restriction enzymes SalI and XbaI to give expression plasmid ACC2/pFAST-BacHTa.
A plasmid for expression of ACC2 without a mitochondrial targeting sequence was prepared by PCR using the expression plasmid as a template, and Primer 3 (SalI restriction enzyme recognition sequence was added) and Primer 4 prepared by reference to the information of human ACC2 gene base sequence (Genbank Accession U89344).
as §2, with “Pyrobest-DNA” for “Pyrobest DNA”, “AflII.” for “XbaI.”, “ACC2/pFAST-BacHTa” for “pFAST-BacHTa (Invitrogen)”, “AflII” for “XbaI”, “ACC2mito7/pFAST-BacHTa.” for “ACC2/pFAST-BacHTa.”
Using the expression plasmid ACC2mito7/pFAST-BacHTa and BAC-TO-BAC Baculovirus Expression System (Invitrogen), virus stock BAC-ACC2 of recombinant Baculovirus (N terminal deleted (hereinafter Nd)) was prepared.
(2) Preparation of ACC2 (Nd) Protein
SF-9 cells (Invitrogen) were inoculated to a medium (2 L) for insect cells (Sf-900IISFM medium (Invitrogen) containing 10% fetal bovine serum (Trace), 50 mg/L Gentamicin (Invitrogen), 0.1% Pluronic F-68 (Invitrogen)) at 0.5×10^6 cells/mL, and cultured with shaking in Wave Bioreactor (Wave) at 27° C., 20 rpm, rocking angle 6°, oxygen concentration 30%.
On day 4 of the culture, 3 L of the medium for insect cells was added, the rocking angle was set to 8°, and the cells were cultured. On day 5 of the culture, 100 ml of recombinant Baculovirus BAC-ACC2 (Nd) was added, 5 L of the medium for insect cells was further added, the rocking angle was set to 11°, and the cells were cultured for 3 days. The culture medium was centrifuged at 1000×g for 10 min to give virus-infected cells. The cells were washed with phosphate buffered saline (Invitrogen) and centrifuged under the same conditions. The obtained cells were cryopreserved at −80° C.
The cryopreserved cells were thawed in ice and suspended in 900 ml of 25 mM HEPES buffer (pH 7.5) containing 10% Glycerol, 0.13 M NaCl, 1 mM EDTA, 25 mM Sodium β-Glycerophosphate and 1 mM Sodium Orthovanadate, and supplemented with Complete Protease Inhibitor (Nippon Boehringer Ingelheim Co., Ltd.). The obtained suspension was homogenized three times in a polytron homogenizer (Kinematica) at 20,000 rpm for 30 sec. The obtained cell disruption solution was clarified by centrifugation at 31000×g for 60 min, and filtered through a 0.45 μm filter. The filtrate was passed through a column packed with 60 mL of Ni-NTA Super Flow Gel (QUIAGEN) at a flow rate of about 5 mL/min. The column was washed with buffer A (50 mM HEPES (pH 7.5) containing 0.3 M NaCl), further washed with buffer A containing 20 mM Imidazole, and eluted with buffer A containing 100 mM Imidazole. The eluate was concentrated with Vivaspin 20 (Vivascience) with a molecular weight cut off of 30K. The obtained concentrate was dialyzed against 50 mM HEPES (pH 7.5) containing 10 mM MgCl2, 2 mM Dithiothreitol, 10 mM Tripotassium Citrate and 0.3 M NaCl. The inner dialysate was filtered through a 0.22 μm filter to give ACC2 (Nd). […]

human ACC1 = molecular target: T2, human ACC1 (Homo sapiens, UniProt Q13085); assay: ACC1 inhibitory activity (malachite green); format: biochemical; details: test compound 10 μM; for inhibition at 10 µM: read-out: ACC1 10 μM inhibitory rate (%)
T2 construct: His6 (from vector pFAST-BacHTc); made in house; host or cells: SF-9 insect cells, recombinant baculovirus BAC-ACC1
Description: The ACC1 inhibitory action of the compound of the present invention was evaluated by the following method.
(1) Cloning of Human ACC1 Gene and Preparation of Recombinant Baculovirus
as §1, with “ACC1” for “ACC2”, “liver” for “skeletal muscle”, “NotI” for “XbaI”, “U19822).” for “U89344).”
as §2, with “NotI.” for “XbaI.”, “pFAST-BacHTc” for “pFAST-BacHTa”, “NotI” for “XbaI”, “ACC1/pFAST-BacHTc.” for “ACC2/pFAST-BacHTa.”
Using the expression plasmid ACC1/pFAST-BacHTc and BAC-TO-BAC Baculovirus Expression System (Invitrogen), virus stock BAC-ACC1 of recombinant Baculovirus was prepared.
(2) Preparation of ACC1 Protein
SF-9 cells (Invitrogen) were inoculated to a medium (1 L) for insect cells (Sf-900IISFM medium (Invitrogen) containing 10% fetal bovine serum (Trace), 50 mg/L Gentamicin (Invitrogen), 0.1% Pluronic F-68 (Invitrogen)) at 1×10^6 cells/mL, and cultured with shaking in 2 L meyer at 27° C., 100 rpm.
After 24 hr of the culture, 10 mL of recombinant Baculovirus BAC-ACC1 was added, and the cells were cultured for 3 days. The culture medium was centrifuged at 1000×g for 5 min to give virus-infected cells. The cells were washed with phosphate buffered saline (Invitrogen) and centrifuged under the same conditions. The obtained cells were cryopreserved at −80° C.
The cryopreserved cells were thawed in ice and suspended in 100 mL of 25 mM HEPES buffer (pH 7.5) containing 10% Glycerol, 0.13 M NaCl, 1 mM EDTA, 25 mM Sodium […] and 1 mM Sodium Orthovanadate, and supplemented with Complete Protease Inhibitor (Nippon Boehringer Ingelheim Co., Ltd.). The obtained suspension was homogenized three times in a polytron homogenizer (Kinematica) at 20,000 rpm for 30 sec. The obtained cell disruption solution was clarified by centrifugation at 185700×g for 50 min, and filtered through a 0.45 μm filter. The filtrate was passed through a column packed with 12 ml of Ni-NTA Super Flow Gel (QUIAGEN) at a flow rate of about 5 mL/min. The column was washed with buffer A (50 mM HEPES (pH 7.5) containing 0.3 M NaCl), further washed with buffer A containing 20 mM Imidazole, and eluted with buffer A containing 100 mM Imidazole. The eluate was concentrated with Vivaspin 20 (Vivascience) with a molecular weight cut off of 30K. The obtained concentrate was dialyzed against Sephadex G-25 (Amersham Biosciences, 358 mL) equilibrated with 50 mM HEPES (pH 7.5) containing 10 mM MgCl2, 2 mM Dithiothreitol, 10 mM Tripotassium Citrate and 0.3 M NaCl. The inner dialysate was concentrated with Vivaspin 20 (Vivascience) with molecular weight cut off of 30K, and concentrate was filtered through a 0.22 μm filter to give ACC1. The obtained ACC1 was cryopreserved at −80° C.
(3) Measurement of ACC1 Inhibitory Activity
ACC1 (0.93 mg/ml) obtained in the above-mentioned (2) was diluted with an enzyme reaction buffer (50 mM HEPES (pH 7.5), 10 mM MgCl2, 10 mM Tripotassium Citrate, 2 mM Dithiothreitol, 0.75 mg/ml Fatty acid free BSA) to a concentration of 8 μg/ml, and the mixture was added to each well of a 384 well assay plate (Nunc 265196) by 10 μl. A test compound was dissolved in dimethyl sulfoxide (DMSO) and the mixture was diluted with an enzyme reaction buffer and the resulting solution (5 μl) was added to each well. The mixture was incubated at 30° C. for 60 min. Then, a substrate solution (50 mM KHCO3, 200 μM ATP, 200 μM Acetyl-CoA, 5 μl) was added to each well, and the mixture was reacted at 30° C. for 20 min (test compound addition group). […]

Row | Structure (SMILES) | inhibition at 10 µM (human ACC2 (Nd)) | inhibition at 10 µM (human ACC1) | ACC2 10 μM inhibitory rate (%) (human ACC2 (Nd)) | ACC1 10 μM inhibitory rate (%) (human ACC1)
1 | CC(=O)N[C@@H](C)[C@@H]1Cc2ccc(OCc3ccc(OCC4CC4)nc3F)cc2O1 [Example 143, N-{(1S)-1-[(2S)-6-{[6-(cyclopropylmethoxy)-2-fluoropyridin-3-yl]methoxy}-2,3-dihydro-1-benzofuran-2-yl]ethyl}acetamide] | 73% | 8% | – | –
2 | CCCCOc1ccc(CCc2ccc3cc(C(C)NC(C)=O)oc3c2)cc1 (stereo not drawn) [Example 44, N-(1-{6-[2-(4-butoxyphenyl)ethyl]-1-benzofuran-2-yl}ethyl)acetamide] | 78% | 35% | – | –
3 | CCOc1ccc(CCc2ccc3cc(C(C)NC(C)=O)oc3c2)cc1 (stereo not drawn) [Example 190 (retention time longer), N-(1-{6-[2-(4-ethoxyphenyl)ethyl]-1-benzofuran-2-yl}ethyl)acetamide] | 79% | 29% | – | –
4 | COCOc1ccc(CCc2ccc3cc(C(C)NC(C)=O)oc3c2)cc1 (stereo not drawn) [Example 95, N-[1-(6-{2-[4-(methoxymethoxy)phenyl]ethyl}-1-benzofuran-2-yl)ethyl]acetamide] | 80% | 43% | – | –
5 | CC(Nc1ccon1)c1cc2ccc(CCc3ccc(OCC4CC4)cc3)cc2o1 (stereo not drawn) [Example 176, N-[1-(6-{2-[4-(cyclopropylmethoxy)phenyl]ethyl}-1-benzofuran-2-yl)ethyl]isoxazol-3-amine] | 88% | 31% | – | –
6 | CCOc1ccc(CCc2cnc3cc([C@H](C)NC(C)=O)oc3c2)cc1 [Example 107, N-[(1S)-1-{6-[2-(4-ethoxyphenyl)ethyl]furo[3,2-b]pyridin-2-yl}ethyl]acetamide] | 70% | 12% | – | –
7 | CC(=O)NC(C)c1cc2ccc(CCc3ccc4c(c3)CCO4)cc2o1 (stereo not drawn) [Example 94, N-(1-{6-[2-(2,3-dihydro-1-benzofuran-5-yl)ethyl]-1-benzofuran-2-yl}ethyl)acetamide] | 80% | 19% | – | –
8 | CCOc1ccc(COc2ccc3oc(C(C)NC(C)=O)cc3c2)c(Cl)c1 (stereo not drawn) [Example 28, N-(1-{5-[(2-chloro-4-ethoxybenzyl)oxy]-1-benzofuran-2-yl}ethyl)acetamide] | 81% | 19% | – | –
9 | CC(=O)NC(C)c1cc2cc(OCc3cnc(OCC4CC4)cc3F)ccc2o1 (stereo not drawn) [Example 154, N-[1-(5-{[6-(cyclopropylmethoxy)-4-fluoropyridin-3-yl]methoxy}-1-benzofuran-2-yl)ethyl]acetamide] | 78% | 39% | – | –
10 | CC(=O)NC(C)c1cc2ccc(CCc3ccc(OCC4CC4)cc3)cc2o1 (stereo not drawn) [Example 191 (retention time shorter), N-[1-(6-{2-[4-(cyclopropylmethoxy)phenyl]ethyl}-1-benzofuran-2-yl)ethyl]acetamide] | – | – | 75% | 20%
11 | CCOc1ccc(CCc2cc3oc(C(C)NC(C)=O)cc3cn2)cc1 (stereo not drawn) [Example 135, N-(1-{6-[2-(4-ethoxyphenyl)ethyl]furo[3,2-c]pyridin-2-yl}ethyl)acetamide] | 81% | 14% | – | –
12 | CC(=O)N[C@@H](C)[C@@H]1Cc2ccc(OCc3ccc(OCC4CC4)cc3F)cc2O1 [Example 145, N-{(1S)-1-[(2S)-6-{[4-(cyclopropylmethoxy)-2-fluorobenzyl]oxy}-2,3-dihydro-1-benzofuran-2-yl]ethyl}acetamide] | 88% | 42% | – | –
13 | CCOc1ccc(COc2ccc3oc(C(C)NC(C)=O)nc3c2)cc1 (stereo not drawn) [Example 42, N-(1-{5-[(4-ethoxybenzyl)oxy]-1,3-benzoxazol-2-yl}ethyl)acetamide] | 76% | 1% | – | –
14 | CC(=O)NC(C)c1coc2cc(OCc3ccc(OCC4CC4)nc3F)ccc12 (stereo not drawn) [Example 164, N-[1-(6-{[6-(cyclopropylmethoxy)-2-fluoropyridin-3-yl]methoxy}-1-benzofuran-3-yl)ethyl]acetamide] | 93% | 50% | – | –
15 | CC(=O)NC(C)c1cc2ccc(C#Cc3ccc(OCC4CC4)nc3)cc2o1 (stereo not drawn) [Example 138, N-[1-(6-{[6-(cyclopropylmethoxy)pyridin-3-yl]ethynyl}-1-benzofuran-2-yl)ethyl]acetamide] | 70% | 22% | – | –
